One experiment has as its target T1, 5-HT3AT6'S receptors (Homo sapiens, UniProt P46098, T279S).
T1 construct: expressed in transfected cells; host or cells: Xenopus oocytes
T1 sequence (P46098 24-478 T279S): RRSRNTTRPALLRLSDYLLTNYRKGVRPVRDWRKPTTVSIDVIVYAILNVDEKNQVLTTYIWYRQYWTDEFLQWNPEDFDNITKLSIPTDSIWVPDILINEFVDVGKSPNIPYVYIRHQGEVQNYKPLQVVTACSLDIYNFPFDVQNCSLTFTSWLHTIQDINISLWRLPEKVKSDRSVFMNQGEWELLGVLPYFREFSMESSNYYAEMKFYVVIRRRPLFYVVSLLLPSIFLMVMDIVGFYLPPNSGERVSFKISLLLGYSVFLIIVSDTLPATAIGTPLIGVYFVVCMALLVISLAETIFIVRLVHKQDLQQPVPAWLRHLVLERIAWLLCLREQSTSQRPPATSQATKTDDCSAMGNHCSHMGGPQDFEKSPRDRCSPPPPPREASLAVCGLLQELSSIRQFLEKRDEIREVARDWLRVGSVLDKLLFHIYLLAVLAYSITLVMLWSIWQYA
In words: Two-electrode voltage clamp in oocytes expressing the 5-HT3AT6'S receptor mutant. It is filed as cell-based. To be noted: for ΔpEC50 (ΔpIC50 for inhibitors, T6'S vs wild-type): 2 µM 5-HT; for IC50: read-out: pEC50 (pIC50 for inhibitors) at T6'S mutant (converted). On the procedure:
Microelectrodes were fabricated from borosilicate glass (GC120TF-10; Harvard Apparatus, Edenbridge, Kent, UK) using a two-stage horizontal pull (P-97; Sutter Instrument Company, Novato, CA) and filled with 3 M KCl. Pipette resistances ranged from 0.8 to 2.0 MΩ. Oocytes were placed in a perfusion chamber made from 2-mm-wide × 30-mm-long silicon tubing that was cut in half lengthways (total volume ∼0.1 ml), and were perfused with ND96 at a rate of 12 ml min^−1. Drug application was via a simple gravity-fed system calibrated to run at the same rate. […] A 3-minute wash was used between compound applications. Oils were dissolved in buffer containing 1% DMSO, freshly prepared each day, and constantly stirred during the experiments.
The effects of the compounds on 5-HT3AT6'S receptors were also evaluated. […] Parameters were incorporated into the model that defined changes in pEC50, pIC50, Max0, and pA2 values for 5-HT3AT6'S receptors. These parameters were statistically evaluated as described earlier.
Parameters were included in the model that allowed differences in agonist and inhibitory effects to be quantified and evaluated.
(In two-electrode clamp one electrode senses voltage and the other passes current.)

Experiment [1] deals with T2, human 5-HT3 receptors (5-HT3A) (Homo sapiens, UniProt P46098).
T2 sequence (P46098 24-478): T1 sequence (P46098 24-478 T279S) with S256T
The experiment can be described thus: Two-electrode voltage clamp of 5-HT-evoked currents in Xenopus oocytes expressing 5-HT3 receptors, nonlinear mixed-effects modeling.
Method: 5-HT3A subunit cDNA was cloned into pGEMHE for oocyte expression. cRNA was transcribed in vitro from a linearized plasmid cDNA template using the mMessage mMachine Ultra T7 Transcription kit (Ambion, Austin, TX). Stage V and VI oocytes were injected with 50 nl of 100–500 ng µl^−1 cRNA (5–25 ng injected), and currents were recorded 1–4 days postinjection.
Specifically, NONMEM allows the modeling of the relationship between drug and response, and importantly, the random between-oocyte variance, which is considerable. NONMEM enabled a single unified model to be created that included all electrophysiological agonist and antagonist data. […] The ability to allow for between-oocyte variance enabled raw peak currents to be analyzed, rather than normalized values. Normalization can obscure relationships between parameters, resulting in inaccurate and imprecise estimates of drug effects. Differences in peak currents and agonist potency between different oocytes were modeled with population variances (ω^2) associated with model parameters.
A structural model defined the relationship between the independent variables (i.e., agonist and antagonist concentrations) and the peak current (dependent variable).
The effect of time on the agonist response was modeled linearly as:(2) [drawing 2] where Max0 = as in eq. 1; MaxT = PRED when [A] = ∞ at time T; T = time (hours) from start of individual experiment; and nT = change in response per hour expressed as a proportion of the response at T = 0 (nT = 0 represents no change; nT = −0.1 represents a reduction of 10%, and nT = 0.1 represents an increase of 10% per hour).
The effect of the compounds on MaxT was modeled as follows:(3) [drawing 3] where MaxT = PRED when [A] = ∞ in the absence of drug D at time T (eq. 2); Max(D) = PRED when [A] = ∞ in the presence of drug D at time T; [D] = concentration of inhibitor drug; pIC50 = −log10[D] in the presence of which Max(D) = MaxT/2; and nH(D) = inhibitor Hill coefficient. (This model assumes that, when [D] = ∞, PRED = 0.)

The target of experiment [2] is T3, 5-HT3 receptor (Homo sapiens, UniProt P46098).
T3 sequence (P46098 24-478): T1 sequence (P46098 24-478 T279S) with S256T
In words: Dual application with bilobalide or diltiazem (allotopic vs syntopic inhibition), oocytes. It is filed as cell-based. Also noted: expressed in transfected cells; host or cells: Xenopus oocytes injected with cRNA transcribed from pGEMHE. As to conditions: 100 µM 5-HT. On the procedure: Dual application studies were performed as previously described ([Jarvis and Thompson, 2013]). This is a simple method to determine whether two channel blockers share the same binding site (syntopic inhibition) or bind to separate locations (allotopic inhibition). […] Concentrations of the test compounds, BB and DTZ, were selected such that they caused approximately 62% inhibition when used alone. From the results of these experiments, predicted levels of inhibition were derived for both allotopic and syntopic modes of action. These predictions were compared with data obtained experimentally using the same concentrations of the inhibitors acting together. For each oocyte, the change in the amplitude of the 5-HT response over time was monitored and taken into account. Inhibition by drugs was quantified in relation to interpolated control responses for each time point.
The dual application measurements were compared statistically with allotopic and syntopic predictions using a two-way analysis of variance in which the oocyte was included as a random effect (SPSS Statistics 20; IBM, Armonk, NY). Post-hoc testing was with Dunnett’s method, comparing the measured data to each of the predictions.

The target of experiment [3] is T3, 5-HT3 receptor. The experiment can be described thus: Flow cytometry competition binding with 10 nM fluorescent granisetron (G-FL) in HEK293 cells. To be noted: concentrations up to 1 mM, n = 3. Also noted: expressed in transfected cells; host or cells: HEK293 cells, transient transfection with pcDNA3.1 construct. The method, then: 5-HT3A subunit cDNA was cloned into pcDNA3.1 for expression in HEK293 cells (ThermoFisher Scientific, Waltham, MA). Cells were transiently transfected with this cDNA using polyethyleneimine (25 kDa, linear, powder; Polysciences Inc., Eppelheim, Germany). Thirty microliters of polyethyleneimine (1 mg ml^−1), 5 μg of cDNA, and 1 ml of DMEM were incubated for 10 minutes at room temperature, added dropwise to a 90-mm plate of 70–80% confluent HEK293 cells, and incubated for 2–3 days before use.
HEK293 cells expressing the 5-HT3 receptor were grown in monolayers and harvested from a 90-mm culture dish using 10 ml of Trypsin-EDTA (Sigma-Aldrich) for 10 minutes at 37°C. Digestion was terminated by the addition of 25 ml DMEM + 10% fetal bovine serum, and cells were pelleted at low speed for 2 minutes. […] Competition binding was measured by incubating HEK293 cells with different concentrations of nonlabeled ligands and 10 nM fluorescent granisetron (G-FL). […] The geometric mean was measured at each concentration of test compound and fitted to eq. 1 (see the following section) using a least-squares method (GraphPad Prism v4; GraphPad Software, La Jolla, CA).

For a further experiment, the target named is 5-HT3 receptors. More on the design: method as in Ashoor et al., 2013. As to conditions: ref Ashoor et al., 2013; cited from earlier work.
Experiment [4] has as its system 5-HT-evoked contractions of guinea pig ileum. The experiment can be described thus: 5-HT-evoked contraction of isolated guinea pig ileum. The method, then:
Guinea pig ileum was obtained from adult male guinea pigs (200–300 g). The ileum was cut into 1-cm lengths and mounted longitudinally to a force transducer with a resting tension of 0.5 g in a 10-ml water-jacketed organ bath containing Krebs’ buffer (118 mM NaCl, 4.7 mM KCl, 1.2 mM MgSO4, 1.25 mM CaCl2, 11 mM glucose, 10 mM HEPES, pH 7.2) continuously aerated with 95% O2/5% CO2 and kept at 37°C. The ileum segments were allowed to equilibrate for 10 minutes before the experiments were started, and contractile responses were recorded using LabChart 6 (ADInstruments Ltd., Oxford, UK). […] Following drug applications, the organ bath was flushed twice with fresh Krebs’ solution, and the ileum was allowed to recover for 10 minutes prior to the next application. […] Experiments involving animals were approved by the University of Cambridge Animal Welfare and Ethical Review Body (reference: PHARM 004/15).

The test system of experiment [5] is 5-HT-induced contractions in rat trachea. In words: 5-HT-induced contraction of isolated rat trachea. To be noted: granisetron 10 µM. On the procedure:
The trachea was removed from male Wistar albino rats (250–350 g), cut into 2-cm lengths, and mounted on a force transducer with a resting tension of 1.0 g in a 10-ml water-jacketed organ bath containing modified Tyrode’s solution (136 mM NaCl, 5 mM KCl, 0.98 mM MgCl2, 0.36 mM NaH2PO4, 2 mM CaCl2, 11.9 mM NaHCO3, 5.5 mM glucose, pH 7.4) continuously aerated with 95% O2/5% CO2 and kept at 37°C. Contractile responses were recorded using a force transducer (model FT03; Grass Technologies, Quincy, MA) connected to a PC-based data acquisition system (Dataq, PM-1000; DATAQ Instruments Inc., Akron, OH). The experiments were conducted after an equilibration period of 60 minutes and three successive similar contractile responses. Experiments were approved by the local animal ethics committee (protocol number 00084/2014.2).

The mark [6] stands for this setting: wild-type, population parameter estimate.
The mark [7] stands for this setting: IC50 (inhibition of 5-HT-evoked currents), wild-type, from nonlinear mixed-effects model.
[8] abbreviates: IC50 derived from normalized data, wild-type, normalized data instead of mixed-effects model.
The mark [9] stands for this setting: wild-type, population parameter estimate, listed as Eucalyptol.

Residue numbers refer to the chain shown, from its start. Entries after “also recorded” stand apart in the source; their conditions may differ. Like-named read-outs stand apart in the source and are kept apart here.

Regarding `NCCc1c[nH]c2ccc(O)cc12` [5-HT, 5-hydroxytryptamine, reference compound], the “Increase in 5-HT sensitivity in the T6'S mutant” value at 5-HT3AT6'S receptors was found to be 2 fold. The “ΔpEC50 (T6'S vs wild-type)” value on 5-HT3AT6'S receptors (agonist 5-HT) is 0.35 ± 0.07. In addition, the “5-HT nH (agonist Hill coefficient)” value in experiment [1] (wild-type) was 2.94 ± 0.13. Besides, the “Max (maximal 5-HT peak current)” value in experiment [1] (setting [6]) was 4.94 ± 0.64 µA.

In the case of `CC(C)=CCCC(C)=CC=O` (mixture of isomers) [citral], on 5-HT3 receptor [2], the “Measured dual inhibition with bilobalide compared with predictions” value was “no different from the allotopic predictions” and the “Measured dual inhibition with diltiazem compared with predictions” value is reported as “no different from the allotopic predictions”. In addition, on 5-HT3AT6'S receptors, the “Agonist action when applied alone” value was “did not evoke currents; also recorded: no agonist action”; the “Reduction of inhibitory potency compared with wild-type receptors” value (“Reduction of inhibitory potency” for short) is listed as “approximately 2 fold”; the “ΔpEC50 (ΔpIC50 for inhibitors, T6'S vs wild-type)” value is −0.36 ± 0.10; the IC50 is 282 µM. Also, the “Effect on agonist (5-HT) pEC50 (interpretation of nG hypothesis test)” value (“Effect on agonist (5-HT) pEC50” below) in experiment [1] was “No evidence that citral changes agonist pEC50”. The compound also registered an IC50 in experiment [1] (setting [7]) of 120 µM. The compound further came in with an IC50 in experiment [1] (setting [8]) of 98 µM. For the same compound, the “nH (inhibitor Hill coefficient)” value in experiment [1] (setting [6]) is 1.3. Further, the “nH (inhibitor Hill coefficient)” value in experiment [1] (wild-type, population parameter estimate, listed as Citral) is listed as 1.34 ± 0.08. The “Competition with G-FL binding” value on 5-HT3 receptor [3] is “unaffected; also recorded: no competition”.

In the case of `CC1CCC(C(C)C)C(O)C1` (centres unmarked) [menthol], the IC50 on 5-HT3 receptors is 163 µM.

For the compound `CN1C2CCCC1CC(NC(=O)c1nn(C)c3ccccc13)C2` (centres unmarked) [granisetron], in experiment [4], the “Effect on 5-HT-evoked contractions” value is reported as “inhibited”. Moreover, in experiment [5], the “Effect on 5-HT-induced contractions” value is listed as “substantially inhibited”.

On to `CC12CCC(CC1)C(C)(C)O2` [eucalyptol], for which, at 5-HT3 receptor [2], the “Measured dual inhibition with diltiazem compared with predictions” value is given as “greater than the allotopic prediction”. In addition, at 5-HT3AT6'S receptors, the “Agonist action when applied alone” value was “did not evoke currents; also recorded: no agonist action”; the “Effect on 5-HT pEC50 at T6'S” value was “did not alter the 5-HT pEC50”; the “Reduction of inhibitory potency” value is listed as “approximately 2 fold”; the “ΔpEC50 (ΔpIC50 for inhibitors, T6'S vs wild-type)” value was −0.45 ± 0.22. Also, the IC50 on 5-HT3AT6'S receptors is 724 µM. Besides, the Kb in experiment [1] was 813 µM. Moreover, the IC50 in experiment [1] (setting [7]) amounted to 258 µM. In experiment [1] (setting [8]), the IC50 was 174 µM. Also, the “Effect on agonist (5-HT) pEC50” value in experiment [1] (wild-type) is “Strong evidence that eucalyptol changes agonist pEC50”. Further, in experiment [1] (setting [6]), the “nH (inhibitor Hill coefficient)” value is recorded as 1.0, the “nS (Schild coefficient)” value was 1.7 and the “pA2 (shift in agonist pEC50)” value is 3.09. Also, in experiment [1] (setting [9]), the “nH (inhibitor Hill coefficient)” value is given as 1.04 ± 0.11 and the “nS (Schild coefficient)” value is on record as 1.70 ± 0.24. In addition, the “Competition with G-FL binding” value on 5-HT3 receptor [3] is recorded as “unaffected; also recorded: no competition”.

With `C=CC(C)(O)CCC=C(C)C` (centres unmarked) [linalool], at 5-HT3 receptor [2], the “Measured dual inhibition with bilobalide compared with predictions” value was “greater than the allotopic prediction” and the “Measured dual inhibition with diltiazem compared with predictions” value is on record as “greater than the allotopic prediction”. For the same compound, at 5-HT3AT6'S receptors, the “Agonist action when applied alone” value is “did not evoke currents; also recorded: no agonist action”; the “Reduction of inhibitory potency” value is on record as “approximately 2 fold”; the “ΔpEC50 (ΔpIC50 for inhibitors, T6'S vs wild-type)” value is reported as −0.34 ± 0.04; the IC50 is 309 µM. In experiment [1] (setting [7]), this compound showed an IC50 of 141 µM. Besides, the IC50 in experiment [1] (setting [8]) is 83 µM. Moreover, in experiment [1] (wild-type), the “Effect on agonist (5-HT) pEC50” value was “No/weak evidence that linalool changes agonist pEC50”. In addition, the “nH (inhibitor Hill coefficient)” value in experiment [1] (setting [6]) was 2.2. Further, the “nH (inhibitor Hill coefficient)” value in experiment [1] (wild-type, population parameter estimate, listed as Linalool) is recorded as 2.19 ± 0.26. The “Competition with G-FL binding” value on 5-HT3 receptor [3] is listed as “unaffected; also recorded: no competition”.

The record behind these values is article PMC5378937 (The Journal of Pharmacology and Experimental Therapeutics, 2016).
